# According to ChEMBL document CHEMBL1201862, “PubChem BioAssay data set” (2004):
#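 Growth conditions: 96-well plates. Treatment: test compound, 48 hours, 5 concentrations. Analysis: linear interpolation between bracketing concentrations; unreached endpoints set to highest concentration. At the GI50, growth is halved.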 Activity calls are given as the source filed them. Cut-off read from the data, not from the text of the source: active = GI50 up to about 1.1 µM and inactive = higher.
# Tests used:
# Test in all cases: inhibition of tumour cell growth, NCI panel, 48 h
# SK-MEL-2 = tested on: SK-MEL-2
# HCC 2998 = tested on: HCC 2998
# SNB-19 = tested on: SNB-19
# RPMI-8226 = tested on: RPMI-8226
# RXF 393 = tested on: RXF 393
# LOX IMVI = tested on: LOX IMVI
# A549 = tested on: A549
# HCT-15 = tested on: HCT-15
# SW-620 = tested on: SW-620
# NCI-H23 = tested on: NCI-H23
# SNB-75 = tested on: SNB-75
# SF-268 = tested on: SF-268
# PC-3 = tested on: PC-3
# COLO 205 = tested on: COLO 205
# SF-539 = tested on: SF-539
# OVCAR-5 = tested on: OVCAR-5
# HOP-92 = tested on: HOP-92
# OVCAR-4 = tested on: OVCAR-4
# KM12 = tested on: KM12
# MCF7 = tested on: MCF7
SMILES,GI50 (SK-MEL-2),GI50 (HCC 2998),GI50 (SNB-19),GI50 (RPMI-8226),GI50 (RXF 393),GI50 (LOX IMVI),GI50 (A549),GI50 (HCT-15) [µM],GI50 (SW-620),GI50 (NCI-H23),GI50 (SNB-75),GI50 (SF-268),GI50 (PC-3),GI50 (COLO 205),GI50 (SF-539),GI50 (OVCAR-5),GI50 (HOP-92),GI50 (OVCAR-4),GI50 (KM12),GI50 (MCF7)
CCOC(=O)C(NC(=O)NCc1ccc(F)cc1)C(F)(F)F (stereo not drawn),> 100 µM (inactive),> 100 µM (inactive),> 100 µM (inactive),> 100 µM (inactive),> 100 µM (inactive),> 100 µM (inactive),> 100 µM (inactive),> 100,> 100 µM (inactive),> 100 µM (inactive),> 100 µM (inactive),> 100 µM (inactive),> 100 µM (inactive),> 100 µM (inactive),> 100 µM (inactive),> 100 µM (inactive),–,–,–,–
COC(=O)C1=C(C)NC(C)=C(C(=O)OC)C1c1cccc(NO)c1,15.2 µM (inactive),56.8 µM (inactive),> 100 µM (inactive),> 100 µM (inactive),13.9 µM (inactive),16 µM (inactive),> 100 µM (inactive),19.3,13.7 µM (inactive),16.3 µM (inactive),–,16.6 µM (inactive),15 µM (inactive),16.7 µM (inactive),17.4 µM (inactive),16.4 µM (inactive),11.5 µM (inactive),13.9 µM (inactive),15.9 µM (inactive),19 µM (inactive)
COC(=O)c1ccccc1/C=C1\Cc2ccc3c(c2C1=O)CCCC3,> 100 µM (inactive),> 100 µM (inactive),> 100 µM (inactive),> 100 µM (inactive),–,> 100 µM (inactive),> 100 µM (inactive),> 100,> 100 µM (inactive),> 100 µM (inactive),> 100 µM (inactive),> 100 µM (inactive),> 100 µM (inactive),> 100 µM (inactive),> 100 µM (inactive),> 100 µM (inactive),–,> 100 µM (inactive),> 100 µM (inactive),> 100 µM (inactive)
COc1ccc(/N=N/C(=N/NC(=O)c2cc(Cl)ccc2C(=O)c2ccccc2)c2ccc(N(CCC#N)CCC#N)cc2C)cc1,6.9 µM (inactive),18.9 µM (inactive),25.9 µM (inactive),9.35 µM (inactive),3.8 µM (inactive),–,18.8 µM (inactive),13.9,22.3 µM (inactive),18 µM (inactive),27.8 µM (inactive),12.1 µM (inactive),11.4 µM (inactive),17.6 µM (inactive),–,18.2 µM (inactive),–,21.4 µM (inactive),21.4 µM (inactive),25.4 µM (inactive)
O/N=C1/CCCCCC1NO (stereo not drawn),> 100 µM (inactive),> 100 µM (inactive),> 100 µM (inactive),> 100 µM (inactive),> 100 µM (inactive),> 100 µM (inactive),> 100 µM (inactive),> 100,> 100 µM (inactive),> 100 µM (inactive),–,> 100 µM (inactive),> 100 µM (inactive),> 100 µM (inactive),> 100 µM (inactive),> 100 µM (inactive),> 100 µM (inactive),> 100 µM (inactive),> 100 µM (inactive),> 100 µM (inactive)
CCCCC[C@H]1CC=CC(=O)O1,5.43 µM (inactive),4.25 µM (inactive),10.1 µM (inactive),2.86 µM (inactive),2.33 µM (inactive),4.65 µM (inactive),5.86 µM (inactive),4.2,3.41 µM (inactive),17.9 µM (inactive),–,5.38 µM (inactive),7.93 µM (inactive),3.53 µM (inactive),1.56 µM (inactive),24 µM (inactive),10.4 µM (inactive),5.7 µM (inactive),3.18 µM (inactive),4.89 µM (inactive)
CNc1nc(C(N)=O)c(N)s1,> 100 µM (inactive),–,> 100 µM (inactive),> 100 µM (inactive),> 100 µM (inactive),> 100 µM (inactive),> 100 µM (inactive),> 100,> 100 µM (inactive),> 100 µM (inactive),–,> 100 µM (inactive),> 100 µM (inactive),> 100 µM (inactive),> 100 µM (inactive),> 100 µM (inactive),> 100 µM (inactive),> 100 µM (inactive),> 100 µM (inactive),–
CC1CC(=O)Nc2cc(Cl)ccc2N1C(=O)C1CC1 (stereo not drawn),> 100 µM (inactive),> 100 µM (inactive),> 100 µM (inactive),> 100 µM (inactive),> 100 µM (inactive),> 100 µM (inactive),> 100 µM (inactive),> 100,> 100 µM (inactive),> 100 µM (inactive),–,> 100 µM (inactive),> 100 µM (inactive),> 100 µM (inactive),> 100 µM (inactive),> 100 µM (inactive),> 100 µM (inactive),> 100 µM (inactive),> 100 µM (inactive),> 100 µM (inactive)
S=C(/N=c1\sc(Nc2ccc(Cl)cc2)nc2sc3c(c12)CCN(N1CCc2c(sc4nc(Nc5ccc(Cl)cc5)s/c(=N\C(=S)Nc5ccc(Cl)cc5)c24)C1)C3)Nc1ccc(Cl)cc1,23.4 µM (inactive),–,55.2 µM (inactive),–,18.9 µM (inactive),–,55.2 µM (inactive),42.2,38.8 µM (inactive),53.7 µM (inactive),26.7 µM (inactive),> 100 µM (inactive),30.3 µM (inactive),57.9 µM (inactive),17.9 µM (inactive),26.7 µM (inactive),–,–,–,40.6 µM (inactive)
CC12CCC(C(Nc3cc(C(F)(F)F)cc(C(F)(F)F)c3)C1=O)C2(C)C (stereo not drawn),> 100 µM (inactive),> 100 µM (inactive),> 100 µM (inactive),> 100 µM (inactive),–,> 100 µM (inactive),> 100 µM (inactive),> 100,> 100 µM (inactive),> 100 µM (inactive),–,> 100 µM (inactive),> 100 µM (inactive),> 100 µM (inactive),> 100 µM (inactive),> 100 µM (inactive),–,> 100 µM (inactive),> 100 µM (inactive),> 100 µM (inactive)
O=[N+]([O-])c1ccc2[nH]nc(OCc3ccccn3)c2c1,82.2 µM (inactive),> 100 µM (inactive),50.5 µM (inactive),> 100 µM (inactive),> 100 µM (inactive),> 100 µM (inactive),> 100 µM (inactive),> 100,> 100 µM (inactive),> 100 µM (inactive),31.5 µM (inactive),> 100 µM (inactive),> 100 µM (inactive),> 100 µM (inactive),> 100 µM (inactive),> 100 µM (inactive),35.7 µM (inactive),> 100 µM (inactive),> 100 µM (inactive),–
C[n+]1c(-c2ccc(/C=N/Nc3ccnc(N/N=C/c4ccc(-c5cn6ccccc6[n+]5C)cc4)n3)cc2)cn2ccccc21,–,> 100 µM (inactive),42.8 µM (inactive),23.5 µM (inactive),–,–,> 100 µM (inactive),98.9,71.1 µM (inactive),–,34.7 µM (inactive),88.9 µM (inactive),> 100 µM (inactive),94 µM (inactive),20 µM (inactive),60.4 µM (inactive),–,> 100 µM (inactive),32.6 µM (inactive),–
